The assay deals with hydroxycarboxylic acid receptor 2 (HCA2) (Bos taurus, UniProt G3N168). Description: Fura-2 calcium mobilization in native bovine neutrophils expressing HCA2. Type of assay: cell-based.

The structures appear in SMILES notation.

Drawing on paper PMC7385489, “β-hydroxybutyrate and hydroxycarboxylic acid receptor 2 agonists activate the AKT, ERK and AMPK pathways, which are involved in bovine neutrophil chemotaxis” (Scientific Reports, 2020), this text covers EC50 for two compounds.

Chain of hydroxycarboxylic acid receptor 2 (HCA2) (G3N168 1-379): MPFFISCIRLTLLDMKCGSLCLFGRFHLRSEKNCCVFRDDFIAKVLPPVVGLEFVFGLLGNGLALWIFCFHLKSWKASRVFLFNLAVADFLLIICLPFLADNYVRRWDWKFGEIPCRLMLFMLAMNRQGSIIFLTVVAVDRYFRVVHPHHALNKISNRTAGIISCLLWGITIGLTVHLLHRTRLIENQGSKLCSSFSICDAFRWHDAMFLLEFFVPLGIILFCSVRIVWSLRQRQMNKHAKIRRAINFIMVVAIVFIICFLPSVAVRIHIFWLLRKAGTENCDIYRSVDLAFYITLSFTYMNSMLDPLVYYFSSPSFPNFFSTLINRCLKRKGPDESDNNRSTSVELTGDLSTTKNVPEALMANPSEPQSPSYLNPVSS

For orientation: EC50 means the midpoint of the concentration-response curve. For the compound `CC(O)CC(=O)O` (stereo not drawn) [BHB, β-hydroxybutyrate], the EC50 worked out at 2.65 mM.
For the compound `O=C(O)c1n[nH]c2c1C[C@H]1C[C@@H]21` [MK-1903, (1aR,5aR)1a,3,5,5a-Tetrahydro-1H-2,3-diaza-cyclopropa[a]pentalene-4-carboxylic acid], the EC50 stood at 3.38e-05 mM.
